Values of other authors as cited in US9498462B2, “Doxepin trans isomers and isomeric mixtures and methods of using the same to treat sleep disorders” (Pernix Sleep Inc., priority 2006, dated 2016).

How the values were obtained:
melatonin MT2 receptor = target: T1, melatonin MT2 receptor (Homo sapiens, UniProt P49286)
T1 sequence (P49286 1-362): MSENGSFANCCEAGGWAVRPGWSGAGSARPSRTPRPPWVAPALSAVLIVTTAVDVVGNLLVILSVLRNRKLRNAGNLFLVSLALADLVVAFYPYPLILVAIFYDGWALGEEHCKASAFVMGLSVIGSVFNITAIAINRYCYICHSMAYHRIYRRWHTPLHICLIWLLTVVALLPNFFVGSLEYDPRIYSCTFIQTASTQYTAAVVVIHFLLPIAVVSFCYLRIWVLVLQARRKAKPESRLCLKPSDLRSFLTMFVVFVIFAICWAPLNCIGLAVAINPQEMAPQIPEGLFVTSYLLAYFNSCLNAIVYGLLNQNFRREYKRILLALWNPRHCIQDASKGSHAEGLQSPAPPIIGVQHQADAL

melatonin MT1 receptor = melatonin MT1 receptor (Homo sapiens, UniProt P48039)
Chain of melatonin MT1 receptor (P48039 whole entry): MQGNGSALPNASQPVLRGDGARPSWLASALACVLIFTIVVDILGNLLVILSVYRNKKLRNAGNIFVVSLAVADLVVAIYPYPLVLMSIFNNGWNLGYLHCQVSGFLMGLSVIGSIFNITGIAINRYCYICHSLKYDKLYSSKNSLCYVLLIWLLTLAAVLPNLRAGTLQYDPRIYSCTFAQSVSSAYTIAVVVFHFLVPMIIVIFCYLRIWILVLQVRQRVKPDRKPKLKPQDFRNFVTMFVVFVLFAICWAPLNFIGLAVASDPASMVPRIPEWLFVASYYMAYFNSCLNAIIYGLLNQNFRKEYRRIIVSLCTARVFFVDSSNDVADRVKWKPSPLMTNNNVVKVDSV

affinity for melatonin MT2 receptor (melatonin MT2 receptor): high affinity | affinity for melatonin MT1 receptor (melatonin MT1 receptor): high affinity
Structure (SMILES): CCC(=O)NCC[C@@H]1CCc2ccc3c(c21)CCO3 [Ramelteon, (S)—N-[2-(1,6,7,8-tetrahydro-2H-indeno-[5,4-b]furan-8-yl)ethyl]propionamide]
